Data set [1] has as its system Gli1 expression in H2030 cells. As to the kind of experiment: Inhibition of Gli1 expression in H2030 cells, Q-RT-PCR. In kind it is cell-based, human. Conditions: 72 h. An excerpt: (§1) NIH3T3-E1 fibroblasts were obtained from ATCC (Manassas, VA) and cultured, as previously described. CAPAN-1 and PANC-1 human pancreatic cancer cells were obtained from ATCC and cultured in Dulbecco’s Modified Eagle Medium (DMEM) containing 10% heat-inactivated fetal bovine serum (FBS) (Hyclone Laboratories, Logan, UT, USA) and antibiotics, as previously described. The human lung cancer cell lines A549 and H2030 were obtained from ATCC and cultured in RPMI-1640 containing 10% FBS. The human hepatoma cell line HepG2 was obtained from ATCC and cultured in DMEM containing 10% FBS. Mouse embryonic fibroblasts (MEFs) from suppressor of fused (Sufu) null mice (Sufu^−/−) were provided by Dr. Philip Beachy of Stanford University and cultured in DMEM containing 10% FBS. Gant61, SB431542 and vismodegib (GDC0449) were obtained from Cayman Chemical, HPI-1 was obtained from Abcam. For experiments, cells were treated in a medium containing 5% FBS.
(§2) Total RNA was extracted with the RNeasy Plus Mini Kit from Qiagen, according to the manufacturer’s instructions. One microgram of RNA was reverse-transcribed using an iScript Reverse Transcription Supermix from Bio-Rad, to make single-stranded cDNA. The cDNAs were then mixed with Qi SYBR Green Supermix (Bio-Rad, Hercules, CA, USA) for quantitative RT-PCR assay using a Bio-Rad I-cycler IQ quantitative thermocycler. All PCR samples were prepared in triplicate wells in a 96-well plate. […] Fold changes in gene expression were calculated using the ΔΔCt method. […]
(§3) Figure 4 Inhibition of Gli and Shh expression in (a) PDAC (PANC-1) and (b,c) human lung cancer cells (A549 and H2030, respectively) by Oxy186. Cells were treated with the compounds as indicated in DMEM or RPMI 1640 containing 5% FBS for (a) 48 or (b,c) 72 hours, then RNA was extracted and analyzed by Q-RT-PCR for the expression of Gli1 and normalized to GAPDH expression. (d) CAPAN-1 cells were treated with the compounds, as indicated, in DMEM containing 5% FBS for 72 h, then RNA was extracted and analyzed by Q-RT-PCR for the expression of Shh and normalized to GAPDH expression. […]

The subject of data set [2] is Shh expression in CAPAN-1 cells. As to the kind of experiment: Inhibition of Shh expression in CAPAN-1 cells, Q-RT-PCR. In kind it is cell-based, human. Conditions: 72 h.
Text: as §1, §2, §3

The test system of data set [3] is CAPAN-1 cells. As to the kind of experiment: Cell counting assay, CAPAN-1. Conditions: 96 h. In kind it is cell-based, human. As for the experimental part: (§4) A549 and H2030 cells cultured in 12-well plates at 20% confluence were treated with Oxy186, HPI-1, Gant61, or GDC0449 for 96 hours and then trypsinized and suspended in fresh medium. An aliquot of cell suspension was applied to a hemocytometer and counted under a microscope.
(§5) Figure 6 Inhibition of human pancreatic and lung cancer cell proliferation by Oxy186. (a,c) A549, (b) and (d) H2030, (e) PANC-1, and (f) CAPAN-1 cells were treated with the compounds as indicated in RPMI 1640 (a–d) or DMEM (e,f) containing 5% FBS for 96 h and then were trypsinized and counted. Data from a representative experiment are reported as the mean of triplicate determinations ± SD (* p < 0.05 vs. Control; ** p < 0.01 vs. control).

Data set [4] deals with Gli1 expression in PANC-1 cells. As to the kind of experiment: Inhibition of baseline Gli1 expression in PANC-1 cells, Q-RT-PCR. In kind it is cell-based, human. Conditions: 48 h.
Text: as §1, §2, §3

Data set [5] has as its system A549 cells. Description: Cell counting assay, A549. In kind it is cell-based, human. Particulars: 96 h. As for the experimental part:
as §4, §5

The test system of data set [6] is Gli1 expression in A549 cells. Description: Inhibition of Gli1 expression in A549 cells, Q-RT-PCR. Conditions: 72 h. The data set is classed as cell-based, human.
Text: as §1, §2, §3

Data set [7] deals with H2030 cells. As to the kind of experiment: Cell counting assay, H2030. Conditions: 96 h. In kind it is cell-based, human. On the procedure: as §4, §5
Data set [8] has as its system PANC-1 cells. As to the kind of experiment: Cell counting assay, PANC-1. Conditions: 96 h. The data set is classed as cell-based, human. As for the experimental part:
as §4, §5

Data set [9] concerns LXR target gene Abca1. Description: Induction of LXR target gene Abca1 in NIH3T3 cells, Q-RT-PCR. The data set is classed as cell-based, mouse. As for the experimental part:
(§6) Total RNA was extracted with the RNeasy Plus Mini Kit from Qiagen, according to the manufacturer’s instructions. One microgram of RNA was reverse-transcribed using an iScript Reverse Transcription Supermix from Bio-Rad, to make single-stranded cDNA. The cDNAs were then mixed with Qi SYBR Green Supermix (Bio-Rad, Hercules, CA, USA) for quantitative RT-PCR assay using a Bio-Rad I-cycler IQ quantitative thermocycler. All PCR samples were prepared in triplicate wells in a 96-well plate. After 40 cycles of PCR, melt curves were examined in order to ensure primer specificity. Fold changes in gene expression were calculated using the ΔΔCt method. Primers used for mouse were as follows: Oaz1 (5’-CCACTGCTTCGCCAGAGAG-3’) and (5’-CCCGGACCCAGGTTACTA-3’), Gli1 (5’-[…]-3’ and 5’-[…]-3’), Ptch1 (5’-CCATCGGCGACAAGAACC-3’ and 5’-[…]-3’), Hip (5’-[…]-3’ and 5’-[…]-3’), and Abca1 (5’-[…]-3’ and 5’-[…]-3’). Primers used for human were as follows: SREBP1c (5’-CGCTCCTCCATCAATGACA-3’ and 5’-[…]-3’), GAPDH (5’-[…]-3’ and 5’-[…]-3’), SHH (5’-CGGAGCGAGGAAGGGAAAG-3’) and (5’-[…]-3’), and GLI1 (5’-GAAGCCGAGCCGAGTATC-3’ and 5’-[…]-3’).
Figure 7 Induction of LXR target gene expression by Oxy186 and LXR agonist TO901317 (TO). (a) NIH3T3 cells and (b) HepG2 cells were treated with DMEM containing 5% FBS in the presence or absence of TO (2 µM) or Oxy186 (10 µM). […] Data from a representative experiment are reported as the mean of triplicate determinations ± SD (** p < 0.01 vs. control).

Data set [10] is described as follows: Metabolic stability in human liver microsomes. The data set is classed as in vitro ADME.
Data set [11] is described as follows: Pharmacokinetic study in mice, single oral dose. In kind it is in vivo, balb/c mice. Conditions: Figure 8b drug-like properties summary. On the procedure:
In an initial assessment of the drug-like properties of Oxy186, we performed a pharmacokinetic (PK) study in mice. Oxy186, formulated in 4% ethanol, 15% DMSO, and 81% corn oil, was administered to balb/c mice by oral gavage as a single dose of 50 mg/kg.
Figure 8 Drug-like properties of Oxy186. (a) A single dose of Oxy186 at 50 mg/kg, formulated in 4% ethanol/ 15% DMSO/ 81% corn oil, was administered to balb/c mice by oral gavage. Plasma samples were taken at 10 min, 30 min, 1, 2, 4, 6, 8, and 24 h, followed by LC/MS analysis of the plasma. (b) Evolution of Oxy186 from parent compound Oxy16 and their drug-like properties.

For data set [12], the system named is Hh target gene Gli1 expression in NIH3T3-E1 cells. Description: Inhibition of CAPAN-1 conditioned medium (ligand)-induced Gli1 mRNA expression, Q-RT-PCR. Conditions: NIH3T3 cells activated by CAPAN-1 CM Hh ligands, 72 h. In kind it is cell-based.
Text: as §1
Growth medium in confluent […] tissue culture plates of CAPAN-1 cells were replaced with 10 ml of fresh growth medium and cells were incubated for a total of 7 days. Conditioned medium (CM), containing Shh and Ihh, was collected and spun down to remove any detached cells and debris, aliquoted, and stored frozen at −80 °C [37].
Total RNA was extracted with the RNeasy Plus Mini Kit from Qiagen, according to the manufacturer’s instructions. One microgram of RNA was reverse-transcribed using an iScript Reverse Transcription Supermix from Bio-Rad, to make single-stranded cDNA. The cDNAs were then mixed with Qi SYBR Green Supermix (Bio-Rad, Hercules, CA, USA) for quantitative RT-PCR assay using a Bio-Rad I-cycler IQ quantitative thermocycler. […] Fold changes in gene expression were calculated using the ΔΔCt method. […]
Figure 3 Inhibition of ligand-induced Hedgehog signaling. […] After 72 h, RNA was extracted and analyzed by Q-RT-PCR for the expression of Hh target genes Gli1 (a,b,d) and Ptch1 (c), and normalized to Oaz1 expression. […] Luciferase activity was measured and normalized to the Renilla luciferase activity. […]

The nature of data set [13]: Metabolic stability in mouse liver microsomes. In kind it is in vitro ADME.
Data set [14] relates to LXR target gene SREBP1c. Description: Induction of LXR target gene SREBP1c in HepG2 cells, Q-RT-PCR. In kind it is cell-based, human. Conditions: 2 µM, 72 h. As for the experimental part: as §6
Figure 7 Induction of LXR target gene expression by Oxy186 and LXR agonist TO901317 (TO). (a) NIH3T3 cells and (b) HepG2 cells were treated with DMEM containing 5% FBS in the presence or absence of TO (2 µM) or Oxy186 (10 µM). […]

Molecules are shown by their SMILES. “Also recorded” adds a separate entry of the source.

Take `CS(=O)(=O)c1ccc(C(=O)Nc2ccc(Cl)c(-c3ccccn3)c2)c(Cl)c1` [GDC0449, vismodegib]: the “Inhibition of expression of Gli1” value in data set [1] (10 µM) and in [6] (10 µM) was “significantly inhibited” each time. For the same compound, the “Inhibition of Shh expression” value in data set [2] is “inhibitory effects on Shh expression in CAPAN-1 cells, but to a lesser extent”. Also, in [3], the Anti-proliferation effect result is “marginally effective”. Besides, the “Inhibition of high baseline expression of Gli1” value in data set [4] (10 µM) is “did not have a similar effect”. Moreover, the “Inhibition of cell proliferation” value in [5] (10 µM) is listed as “not”.

Take `CN(C)c1ccccc1CN1CCCN(Cc2ccccc2N(C)C)C1c1ccncc1` [Gant61]: the Anti-proliferative effect result in data set [7] is reported as “significant anti-proliferative effect”. For the same compound, the “Inhibition of expression of Gli1” value in data set [1] (20 µM) and in data set [6] (20 µM) was “significantly inhibited” throughout. Also, the Anti-proliferation effect entry in data set [8] and in [3] was “significant anti-proliferation effects” in each case. The “Inhibition of Shh expression” value in [2] is on record as “inhibitory effects on Shh expression in CAPAN-1 cells, but to a lesser extent; also recorded: significant inhibition”. In addition, in data set [4] (20 µM), the “Inhibition of high baseline expression of Gli1” value is given as “significantly inhibited”. For the same compound, the “Inhibition of cell proliferation” value in data set [5] (20 µM) is “significantly inhibited”.

Turning to `CC(C)CCC(O)C(C)(O)C1CCC2C3CC=C4CC(O)CCC4(C)C3CCC21C` [Oxy16, 20-α, 22(R)-dihydroxycholesterol, reference compound], the “LXR agonism (Figure 8b summary)” value in data set [9] (Figure 8b drug-like properties summary) is given as “Stronger LXR agonist”. The “HLM, Half-Life” value in data set [10] came out at 15 min. The amount remaining at 1 h in data set [10] (60 min, read-out: HLM, % Remaining after 60 min) amounted to 6%; in data set [13] (60 min, read-out: MLM, % Remaining after 60 min) it was 5%. In addition, the half-life was less than 15 min in data set [10] (human, liver microsomes, read-out: HLM, Half-Life) and 14 min in data set [13] (read-out: MLM, Half-Life). Moreover, the “In vivo availability / stability (Figure 8b summary)” value in data set [11] was “Unstable in vivo”. This compound also yielded an IC50 in data set [12] greater than 5 µM.

For the compound `O=S(=O)(c1ccccc1)N(CC(F)(F)F)c1ccc(C(O)(C(F)(F)F)C(F)(F)F)cc1` [TO901317, reference compound], the “Induction of expression of LXR target gene Abca1” value in [9] (NIH3T3-E1 cells, 2 µM, 72 h) is “significantly induced”. Moreover, in data set [14], the “Induction of expression of SREBP1c” value is on record as “significantly induced”.

The values above are taken from paper PMC6562610, “Inhibition of Hedgehog Signaling in Fibroblasts, Pancreatic, and Lung Tumor Cells by Oxy186, an Oxysterol Analogue with Drug-Like Properties” (Cells, 2019).
